According to patent US4229436A, “Antibiotic G-6302” (Takeda Chemical Industries, Ltd., priority 1977, dated 1980):
≈ marks a conversion by molar mass, not a printed value.

What was measured:
[1] = Basicity, neutrality or acidity; type: physicochemical
[2] = Stability in aqueous solution; type: physicochemical
Solubility in solvents = type: physicochemical
[3] = mouse, in vivo
[4] = Acute toxicity in mice, intravenous
[5] = tested on: Salmonella typhosa Boxhill 58; assay: Antimicrobial spectrum, agar plate dilution method; type: cell-based; conditions: Salmonella enterica, read-out: Minimal inhibitory concentration
Text: (§1) The biological characteristics of G-6302 are as follows. The antimicrobial spectra of G-6302 and its sodium salt against various microorganisms are shown in Table 3 (agar plate dilution method.)
(§2) Medium = Trypticasesoy-broth-agar

Klebsiella pneumoniae = assay: Protection of mice infected with Klebsiella pneumoniae; type: in vivo
Escherichia coli = assay: Protection of mice infected with Escherichia coli; type: in vivo
[6] = tested on: Aspergillus niger IFO 4066; assay: Antimicrobial spectrum, agar plate dilution method; type: cell-based; conditions: IFO4066, Nutrient agar containing 1% of glucose, read-out: Minimal inhibitory concentration
Text: as §1
(§3) *Medium = Nutrient agar containing 1% of glucose

[7] = tested on: Saccharomyces cerevisiae IFO 0209; assay: Antimicrobial spectrum, agar plate dilution method; type: cell-based; conditions: IFO0209, Nutrient agar containing 1% of glucose, read-out: Minimal inhibitory concentration
Text: as §1, §3

[8] = tested on: Penicillium chrysogenum IFO 4626; assay: Antimicrobial spectrum, agar plate dilution method; type: cell-based; conditions: IFO4626, Nutrient agar containing 1% of glucose, read-out: Minimal inhibitory concentration
Text: as §1, §3

[9] = tested on: Candida albicans IFO 0583; assay: Antimicrobial spectrum, agar plate dilution method; type: cell-based; conditions: IFO0583, Nutrient agar containing 1% of glucose, read-out: Minimal inhibitory concentration
Text: as §1, §3

gram-negative bacteria = assay: Antimicrobial spectrum, summary in words; type: cell-based; conditions: summary of Table 3
Text: as §1

gram-positive bacteria = assay: Antimicrobial spectrum, summary in words; type: cell-based; conditions: summary of Table 3
Text: as §1

[10] = tested on: Pseudomonas aeruginosa U-31; assay: Antimicrobial spectrum, agar plate dilution method; type: cell-based; conditions: U31, Trypticasesoy-broth-agar, read-out: Minimal inhibitory concentration
Text: as §1, §2

[11] = tested on: Proteus mirabilis IFO 3849; assay: Antimicrobial spectrum, agar plate dilution method; type: cell-based; conditions: IFO3849, Trypticasesoy-broth-agar, read-out: Minimal inhibitory concentration
Text: as §1, §2

[12] = tested on: Bacillus subtilis PCI 219; assay: Antimicrobial spectrum, agar plate dilution method; type: cell-based; conditions: PCI219, Trypticasesoy-broth-agar, read-out: Minimal inhibitory concentration
Text: as §1, §2

Klebsiella pneumoniae DT = assay: Antimicrobial spectrum, agar plate dilution method; type: cell-based; conditions: Trypticasesoy-broth-agar, read-out: Minimal inhibitory concentration
Text: as §1, §2

[13] = tested on: Proteus vulgaris IFO 3988; assay: Antimicrobial spectrum, agar plate dilution method; type: cell-based; conditions: IFO3988, Trypticasesoy-broth-agar, read-out: Minimal inhibitory concentration
Text: as §1, §2

[14] = tested on: Staphylococcus aureus FDA 209P; assay: Antimicrobial spectrum, agar plate dilution method; type: cell-based; conditions: FDA209P, Trypticasesoy-broth-agar, read-out: Minimal inhibitory concentration
Text: as §1, §2

Shigella flexneri EW-10 = assay: Antimicrobial spectrum, agar plate dilution method; type: cell-based; conditions: EW10, Trypticasesoy-broth-agar, read-out: Minimal inhibitory concentration
Text: as §1, §2

Escherichia coli T-7 = assay: Antimicrobial spectrum, agar plate dilution method; type: cell-based; conditions: T7, Trypticasesoy-broth-agar, read-out: Minimal inhibitory concentration
Text: as §1, §2

[15] = tested on: Serratia marcescens IFO 12648; assay: Antimicrobial spectrum, agar plate dilution method; type: cell-based; conditions: IFO12648, Trypticasesoy-broth-agar, read-out: Minimal inhibitory concentration
Text: as §1, §2

[16] = tested on: Corynebacterium diphtheriae Toronto; assay: Antimicrobial spectrum, agar plate dilution method; type: cell-based; conditions: Trypticasesoy-broth-agar, read-out: Minimal inhibitory concentration
Text: as §1, §2

[17] = tested on: Proteus morganii IFO 3168; assay: Antimicrobial spectrum, agar plate dilution method; type: cell-based; conditions: Morganella morganii, IFO3168, Trypticasesoy-broth-agar, read-out: Minimal inhibitory concentration
Text: as §1, §2

[18] = tested on: Streptococcus pyogenes E-14; assay: Antimicrobial spectrum, agar plate dilution method; type: cell-based; conditions: E14, Trypticasesoy-broth-agar, read-out: Minimal inhibitory concentration
Text: as §1, §2

Escherichia coli NIHJ = assay: Antimicrobial spectrum, agar plate dilution method; type: cell-based; conditions: Trypticasesoy-broth-agar, read-out: Minimal inhibitory concentration
Text: as §1, §2

[19] = listed as sodium salt of G-6302

COC1(NC(=O)C(C)NC(=O)CCC(N)C(=O)O)CN(S(=O)(=O)O)C1=O (stereo not drawn) [crystals of G-6302]
basicity, neutrality or acidity (compared with product of Example 1) ([1]; crystals of Example 5): the same as those of the product obtained in Example 1 | stability (compared with product of Example 1) ([2]; crystals of Example 5): the same as those of the product obtained in Example 1 | solubility in solvents (compared with product of Example 1) (Solubility in solvents; crystals of Example 5): the same as those of the product obtained in Example 1

COC1(NC(=O)C(C)NC(=O)CCC(N)C(=O)O)CN(S(=O)(=O)O)C1=O (stereo not drawn) [G-6302 . Na]
deaths [3]: no deaths | Solubility in acetone (Solubility in solvents; [19]): Insoluble | Solubility in methanol (Solubility in solvents; [19]): sparingly soluble | acute toxicity [4]: low | MIC [5]: 12.5 µg/mL (≈ 31.5 µM)

COC1(NC(=O)C(C)NC(=O)CCC(N)C(=O)O)CN(S(=O)(=O)O)C1=O (stereo not drawn) [Antibiotic G-6302]
protecting action on infected mice (Klebsiella pneumoniae; oral dose of 100 mg/kg): protecting action | protecting action on infected mice (Klebsiella pneumoniae; subcutaneous dose of 10 mg/kg): protecting action | protecting action on infected mice (Escherichia coli; oral dose of 100 mg/kg): protecting action | protecting action on infected mice (Escherichia coli; subcutaneous dose of 10 mg/kg): protecting action | Basicity, neutrality or acidity [1]: Acid | MIC [6]: > 100 µg/mL | MIC [7]: > 100 µg/mL | MIC [8]: > 100 µg/mL | MIC [9]: > 100 µg/mL | Stability over pH 8.5 ([2]; over pH 8.5): unstable | Stability in aqueous solution ([2]; pH 3-pH 7, 60° C., 10 minutes): Stable | antimicrobial activity against gram-negative bacteria (gram-negative bacteria): inhibitory | antimicrobial activity against gram-negative bacteria (gram-negative bacteria; listed as Antibiotic G-6302): mainly active against gram-negative bacteria | antimicrobial activity against gram-positive bacteria (gram-positive bacteria): inhibitory | antimicrobial activity against gram-positive bacteria (gram-positive bacteria; listed as Antibiotic G-6302): also active against some gram-positive bacteria | Solubility in acetone (Solubility in solvents): sparingly soluble | Solubility in benzene (Solubility in solvents; benzene): Insoluble | Solubility in chloroform (Solubility in solvents; chloroform): Insoluble | Solubility in diethyl ether (Solubility in solvents; diethyl ether): Insoluble | Solubility in dimethylsulfoxide (Solubility in solvents; dimethylsulfoxide): soluble | Solubility in ethanol (Solubility in solvents; ethanol): sparingly soluble | Solubility in ethyl acetate (Solubility in solvents; ethyl acetate): Insoluble | Solubility in hexane (Solubility in solvents; hexane): Insoluble | Solubility in methanol (Solubility in solvents): soluble | Solubility in petroleum ether (Solubility in solvents; petroleum ether): Insoluble | Solubility in pyridine (Solubility in solvents; pyridine): sparingly soluble | Solubility in water (Solubility in solvents; water): readily soluble | MIC [10]: > 100 µg/mL | MIC [11]: 25 µg/mL (≈ 63.1 µM) | MIC [12]: 100 µg/mL (≈ 252 µM) | MIC (Klebsiella pneumoniae DT): 12.5 µg/mL (≈ 31.5 µM) | MIC [13]: 100 µg/mL (≈ 252 µM) | MIC [14]: > 100 µg/mL | MIC (Shigella flexneri EW-10): 25 µg/mL (≈ 63.1 µM) | MIC (Escherichia coli T-7): 25 µg/mL (≈ 63.1 µM) | MIC [15]: 100 µg/mL (≈ 252 µM) | MIC [16]: 12.5 µg/mL (≈ 31.5 µM) | MIC [17]: 100 µg/mL (≈ 252 µM) | MIC [18]: > 100 µg/mL | MIC (Escherichia coli NIHJ): 25 µg/mL (≈ 63.1 µM)
